Where a SMILES comes first, the peptide text is derived from it.
How the values were obtained:
cord blood cells (CBC) = assay: Rosette E formation test with sheep red blood cells; assay type: cell-based, human; conditions: overnight at 37° C.; for % formation of Rosette E: 5% CO2, blank 23; for % of live cells after incubation: 5% CO2, blank 100
Source text: In particular, as the in vitro test, the Rosette E formation test has been performed both on peripheral blood […] (PBMC) and on cord blood cells (CBC). The CBC used give a percentage of Rosette E formation with sheep red blood cells (SRBC) of 20-40%. The test is based on the capability of human T cells of forming Rosette E with SRBC. The assay which has been carried out according to the metodology described by O.G.Bier at al. in Fundamentals of Immunology--Springer-Verlag (1981), consists in the incubation of CBC, with or without the test peptides, overnight at 37° C. in the presence of 5% CO2.

[1] = system: spleen cells of mice incubated with SRBC; assay: Plaque forming cells test; assay type: in vivo
Description: As the in vivo test, the so-called "plaque forming cells" test described by N. Jerne (same reference as above), has been used. The test is carried out incubating spleen cells of mice who had received the test peptides, with SRBC and counting the number of plaques formed. In the actual practice, groups of 3 mice each, received about 1 ng/mouse of test peptide i.p. one hour after the antigen (SRBC) inoculation. Four days after this treatment, the spleen cells are removed and the test is immediately carried out.
The "plaque forming cells" test has been repeated also by treating the test mice with TP5 or with the corresponding retro-inverso analog TP5-RI1-2, three days before antigen (SRBC) injection.

[2] = T.P.Tischio et al. 1979; cited from earlier work
in vitro = conditions: human, heparinized human plasma
Description: Incubations are carried out at 37° C., and aliquots (100 μl each) were collected at time intervals, blocked by treatment with 10% trifluoroacetic acid and centrifuged (10,000 rpm)
for 5'. Aliquots from the supernatant were assayed . by chromatography and the concentration of the test peptide at the different times was measured.

immune response = conditions: thymectomized mice, preliminary in vivo tests; L.Kisfaludy et al. 1983; cited from earlier work
[3] = mice, about 1 ng/mouse i.p. one hour after antigen (SRBC) inoculation, spleen cells four days later, blank 4.62
[4] = mice, about 1 ng/mouse i.p. one hour after antigen (SRBC) inoculation, spleen cells four days later, blank 42.000

For `CC(C)[C@H](NC(=O)[C@H](CC(=O)O)NC(=O)[C@H](CCCCN)NC(=O)[C@@H](N)CCCN=C(N)N)C(=O)N[C@@H](Cc1ccc(O)cc1)C(=O)O` [TP5, H-Arg-Lys-Asp-Val-Tyr-OH] (H-RKDVY-OH), the “% formation of Rosette E” value (cord blood cells (CBC); 10 ng/ml) was 28%, the “% of live cells after incubation” value (cord blood cells (CBC); 10 ng/ml) was 65% and the “% formation of Rosette E” value (cord blood cells (CBC); 100 ng/ml) was 33%. For the same molecule, the “% of live cells after incubation” value (cord blood cells (CBC); 100 ng/ml) was 65%, the “Log Number of plaques” value ([1]; mice treated three days before antigen (SRBC) injection, blank 4.64) was 4.79 and the “Number of plaques formed” value ([1]; mice treated three days before antigen (SRBC) injection, blank 44.000) was 62.000. For the same molecule, the “Log Number of plaques” value [1, 3] was 4.68, the “Number of plaques formed” value [1, 4] was 48.375 and the half-life in serum [2] was “approximately 1.5 minute”.
With `CC(C)[C@H](NC(=O)[C@H](CC(=O)O)NC(=O)C(CCCCN)C(=O)N[C@@H](N)CCCNC(=N)N)C(=O)N[C@@H](Cc1ccc(O)cc1)C(=O)O` (stereo partly drawn) [TP5-RI1-2, AcOH·H-gArg-(R,S)mLys-Asp-Val-Tyr--OH] the half-life (in vitro) was 32 min.
For `N=C(N)NCCC[C@H](N)C(=O)N[C@@H](CCCCN)C(=O)N[C@@H](CC(=O)O)C(=O)O` [TP5^(1-3), H-Arg-Lys-Asp-OH] (H-Arg-Lys-Asp-OH), the “Log Number of plaques” value [1, 3] is listed as 4.67, the “Number of plaques formed” value [1, 4] is listed as 48.917 and the “restoration of the immune response” value (immune response) is listed as “able to restore the immune response in thymectomized mice”.
With “AcOH.multidot.H-gArg-(R,S)mLys-Asp--OH [TP5^(1-3) -RI1-2]” the “Log Number of plaques” value [1, 3] was 4.78 and the “Number of plaques formed” value [1, 4] was 63.125.

Reference: patent US5200506A, “Process for preparing new thymopentin retro-inverso analogs and fragments thereof and the intermediates obtained therein” (Eniricerche S.p.A., priority 1987, dated 1993)
